The source of these data is patent US6362216B1, “Compounds which inhibit tryptase activity” (Array Biopharma Inc., priority 1998, dated 2002).

The Ki is the dissociation constant of the complex between target and ligand, obtained from inhibition or displacement. Low values mean a stronger hold on the target, high ones a looser hold on the target.

The first experiment concerns the target T1, Bovine pancreatic Trypsin (TPCK-treated) (Bos taurus, UniProt P00760).
T1 construct: from tissue; host or cells: bovine pancreas
T1 sequence (P00760 24-246): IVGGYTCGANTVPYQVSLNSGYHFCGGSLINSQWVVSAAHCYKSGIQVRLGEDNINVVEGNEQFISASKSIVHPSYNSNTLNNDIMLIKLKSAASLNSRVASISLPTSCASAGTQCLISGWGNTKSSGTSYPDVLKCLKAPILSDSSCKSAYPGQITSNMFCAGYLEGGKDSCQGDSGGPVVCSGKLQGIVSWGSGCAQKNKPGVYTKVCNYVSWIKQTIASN
The experiment is described as follows: Bovine pancreatic trypsin inhibition, N-α-Benzoyl-L-Arg-pNA substrate. Particulars: the 5th table, unit inferred. The format is biochemical. Here is the method:
(§1) Protease inhibition was assayed according to published procedures with minor modifications using various proteases and specific chromogenic peptide p-nitroanilide substrates. Assays were performed in Costar ultra-low cluster 96-well microtiter plate (Costar Corning Corp., Cambridge Mass.). Each protease was incubated with various concentrations of the test compound for 15 min. at 37° C. or as otherwise indicated, in specific assay buffer, and the residual activity was then measured by addition of the substrate. p-Nitroaniline produced by the proteolysis was determined by measuring the change in absorbance at 405 nm on a SpectraMAX 340 plate reader (Molecular devices, Sunnyvale, Calif.).
(§2) 1. The inhibition constant, Ki is calculated from individual data points using the equation for a tight-binding inhibitor (See Beith, “Proteinase Inhibitors-Proceedings of 2nd Int. Res. Conference”, Fritz, et al. eds., New York, p.4463-4469 (1974)):
(§3) The Ki values are obtained by correcting Ki ′ values for the effect of substrate concentration according to: [formula]
(§4) 2. Other inhibition data (Ki>>[E]o), the Ki is calculated from using the equations for a competitive inhibitor: [formula]
C. Bovine Pancreatic Trypsin
Bovine pancreatic Trypsin (TPCK-treated) activity was determined by using N-α-Benzoyl-L-Arg-pNA in 50 mM Tris-HCl, pH 8.2, 20 mM CaCl2 (See Somorin, et al., J. Biochem. 85, 157-162 (1979)).
(§5) The inhibition constant (Ki) of the test compounds against each proteolytic enzyme was determined according to Zitnik et al., Biochem. Biophys. Res. Commun. 232, 687-697 (1997)).
With `Cc1cc2cc(CNC(=O)Cc3ccc4cc(C(=N)N)ccc4c3)ccc2[nH]1` [drawing 17 Naphthalene 2,6-substitution n=1], the Ki was found to be 0.34 µM.

A further experiment addresses T2, Human plasma thrombin (Homo sapiens, UniProt P00734).
T2 construct: from tissue; host or cells: human plasma
In words: Human plasma thrombin inhibition, H-D-Phe-Pip-Arg-pNA substrate. The format is biochemical. As to conditions: the 5th table, unit inferred. Here is the method: as §1, §2, §3, §4
Human plasma thrombin activity was determined by using H-D-Phe-Pip-Arg-pNA in 50 mM Tris-HCl, pH 8.3, 100 mM NaCl, 1% BSA (See Lottenberg, et al., Meth. Enzymol. 80, 341-361 (1981)).
as §5
For `Cc1cc2cc(CNC(=O)Cc3ccc4cc(C(=N)N)ccc4c3)ccc2[nH]1` [drawing 17 Naphthalene 2,6-substitution n=1], the Ki is > 100 µM.

The target of the next experiment is T3, Human lung tryptase.
T3 construct: Human lung tryptase purchased from Cortex Biochem (San Leandro, Calif.) was purified further on a Superdex 200 gel-filtration column
In words: Human lung tryptase inhibition, chromogenic GPR-pNA substrate. It is filed as biochemical. Particulars: the 5th table, unit inferred. The protocol: as §1, §2
vi/vo=[((Ki′+[I]+[E]o)^2−4[I]o[E]o)^½(Ki′+[I]o−[E]o)]/2[E]o
where Ki′ is apparent inhibition constant; vi and vo are the inhibited and uninhibited rates, respectively; [I]o and [E]o are the total concentrations of inhibitor and enzyme, respectively.
[note: [E]o is determined by active site titration of enzyme]
as §3, §4
IC50 is determined by fitting the individual inhibition data point to Sigmoid or four-parameter curve-fit equations.
Human lung tryptase purchased from Cortex Biochem (San Leandro, Calif.) was purified further on a Superdex 200 gel-filtration column. The active-site concentration of the enzyme was determined by spectrophotometric titration with 4-nitrophenyl 4′-guanidinobenzoate according to Schwartz, et al., J. Immunol., 114, 2304-2311 (1990). Tryptase activity was measured according to the procedures of Schwartz, et al., J. Biol. Chem., 261, 7372-7379 (1986) (See also, Schwartz, L. B., Methods In Enzymology, 244, 88 (1994)) with minor modifications, using Tosyl-Gly-Pro-Arg-p-nitroanilide (“GPR-pNA”, Sigma Chemical Co., St. Louis, Mo., T-1637) as a chromogenic substrate. The reaction was performed in 50 mM Tris-HCl, pH 8.0, containing 150 mM NaCl and 0.02% Triton X-100 at 37° C. in Costar ultra-low cluster 96-well microtiter plates (Costar Corning Corp., Cambridge, Mass.). The amount of pNA produced by tryptase was determined by measuring the change in absorbance at 405 nm on a SpectraMAX 340 plate reader (Molecular devices, Sunnyvale, Calif.). The Km for the substrate was determined by Lineweaver-Burk analysis from initial velocities of substrate hydrolysis. The inhibition assay was carried out in a total volume of 200 μL. Tryptase (30 μL-final concentration 1 nM) was incubated with various concentrations of sample compound (50 μL) to be tested in the above assay buffer for 5 min. The reaction was started by the addition of substrate GPR-pNA (40 μL-final concentration 320 μM), and the residual activity was measured after 15 min. of incubation. The inhibition constant, Ki, was determined by fitting the inhibition data to a two-site competitive binding equation using data analysis program GraphPad PRISM (GraphPad Software, Inc., San Diego, Calif.).
as §5
Take `Cc1cc2cc(CNC(=O)Cc3ccc4cc(C(=N)N)ccc4c3)ccc2[nH]1` [drawing 17 Naphthalene 2,6-substitution n=1]: the Ki was found to be 0.01 µM.

The same experiment, now with this note: tryptase 1 nM, GPR-pNA 320 μM, 50 mM Tris-HCl pH 8.0, 37° C.
Molecule `N#Cc1ccc2[nH]c(Cc3nc4cc(C(=N)N)ccc4[nH]3)nc2c1` registered a Ki of 0.1 µM.

Regarding `N=C(N)c1ccc2[nH]c(CC(=O)Nc3ccc4ccccc4c3)nc2c1` [2-Napthyl], the affinity corresponds to a Ki of 5.2 µM.

As to `N=C(N)c1ccc2[nH]c(CC(=O)Nc3ccccn3)nc2c1` [2-Pyridyl], the Ki was determined as 1.2 µM.

Take `N=C(N)c1ccc2[nH]c(CC(=O)NC3CCN(Cc4ccccc4)CC3)nc2c1` [4-Piperidinyl(N-benzyl)]: the Ki was 1.7 µM.

For the molecule `CS(=O)(=O)Nc1cccc(NC(=O)Cc2nc3cc(C(=N)N)ccc3[nH]2)c1` [(3-N(H)SO2CH3)Ph], the Ki was 7.7 µM.

`CC(=O)Nc1ccc(NC(=O)Cc2nc3cc(C(=N)N)ccc3[nH]2)cc1` [(4-N(H)COCH3)Ph] registered a Ki of 6.4 µM.

On to `CS(=O)(=O)Nc1ccc(NC(=O)Cc2nc3cc(C(=N)N)ccc3[nH]2)cc1` [(4-N(H)SO2CH3)Ph], for which the Ki was 3.9 µM.

`N=C(N)c1ccc2[nH]c(CC(=O)Nc3ccc(S(N)(=O)=O)cc3)nc2c1` [(4-SO2NH2)Ph] displayed a Ki of 2.2 µM.

Molecule `N=C(N)c1ccc2[nH]c(CC(=O)NCc3ccncc3)nc2c1` [CH2(4-Pyridyl)] gave a Ki of 4.7 µM.

Molecule `N=C(N)c1ccc2[nH]c(CC(=O)NCCc3ccncc3)nc2c1` [CH2CH2(4-Pyridyl)] registered a Ki of 1.3 µM.

As for `CCCNC(=O)Cc1nc2cc(C(=N)N)ccc2[nH]1` [CH2CH2CH3], the Ki came to 9.6 µM. Compared with the last molecule, the Ki is about 7.4-fold higher.

For `CCNC(=O)Cc1nc2cc(C(=N)N)ccc2[nH]1` [CH2CH3], the Ki was found to be 7.4 µM.

`N=C(N)c1ccc2[nH]c(CC(=O)NCc3ccc(CN)cc3)nc2c1` [CH2Ph(4-CH2NH2)] came in with a Ki of 2.5 µM.

On to `CNC(=O)Cc1nc2cc(C(=N)N)ccc2[nH]1` [CH3], for which affinity was put at a Ki of 42.8 µM.

Turning to `N=C(N)c1ccc2[nH]c(CC(=O)NC3CCCCC3)nc2c1` [Cyclohexyl], the Ki is 36.9 µM. The Ki values of the last two molecules are within 1.5-fold of each other.

`N=C(N)c1ccc2[nH]c(CC(N)=O)nc2c1` [H] had a Ki of 31.4 µM.

On to `N=C(N)c1ccc2[nH]c(CC(=O)Nc3ccccc3)nc2c1` [X = H n = 0], for which the Ki stood at 9.5 µM.

As for `N=C(N)c1ccc2[nH]c(CC(=O)NCc3ccccc3)nc2c1` [X = H n = 1], the Ki was determined as 21.8 µM.

In the case of `N=C(N)c1ccc2[nH]c(CC(=O)NCCc3ccccc3)nc2c1` [X = H n = 2], the affinity, expressed as Ki, was 5.5 µM. Compared with the last molecule, the Ki is about 4-fold lower.
